# Values quoted from earlier work in patent publication US20250222024A1, “METHOD AND COMPOSITION FOR TREATING CORONA VIRUS, INFLUENZA, AND ACUTE RESPIRATORY DISTRESS SYNDROME” (ReversPAH LLC, priority 2020, published 2025).
# How the values were obtained:
# [1] = test system: monocrotaline-induced pulmonary hypertension; settings: through the bone morphogenetic protein signaling pathway
# [2] = test system: silica-induced lung inflammation and fibrosis; settings: by inhibiting T-helper 17 cell (TH 17)
# [3] = test system: carrageenan-induced lung injury; settings: for TNF-alpha levels in the lung / nitrite and nitrate levels (stable NO metabolites) in pleural exudates: 4 hours after carrageenan administration, versus CAR group, n=8 mice; for TNF-alpha levels in the lung: FIG. 10(a); for nitrite and nitrate levels (stable NO metabolites) in pleural exudates: FIG. 10(b)
# [4] = test system: Sugen/hypoxia-induced PAH; settings: rat
# SARS-CoV-2 = settings: in vitro
compound,measurement,setting,value
O=C(O)[C@H]1O[C@@H](Oc2cc3oc(-c4ccccc4)cc(=O)c3c(O)c2O)[C@H](O)[C@@H](O)[C@@H]1O [Baicalin],monocrotaline-induced pulmonary hypertension,[1],attenuate monocrotaline-induced pulmonary hypertension
same,silica-induced lung inflammation and fibrosis,[2],alleviate silica-induced lung inflammation and fibrosis
"CCN(CC)C(=O)N1CCN(C)CC1 [DEC, Diethylcarbamazine]",TNF-alpha levels in the lung,[3],significantly reduced the TNF-alpha levels
same,nitrite and nitrate levels (stable NO metabolites) in pleural exudates,[3],significantly reduced the nitrite and nitrate level
same,neutrophil infiltration into the lung (myeloperoxidase marker),"[3]; mouse acute lung injury model, DEC pretreatment, FIG. 9",significantly inhibited neutrophil infiltration
COc1ccc2c(c1)c(CC(=O)O)c(C)n2C(=O)c1ccc(Cl)cc1 [INDO],TNF-alpha levels in the lung,[3],did not reduce the TNF-alpha level
same,nitrite and nitrate levels (stable NO metabolites) in pleural exudates,[3],significantly reduced the nitrite and nitrate level
S=C(S)N1CCCC1 [pyrrolidine dithiocarbamate],reversal of established angio-obliterative PAH,[4],reverse established angio-obliterative PAH
Ivermectin,replication of SARS-CoV-2,SARS-CoV-2,inhibits the replication of SARS-CoV-2 in vitro
